Reference: patent publication EP4729516A1, “S[…] DERIVATIVE, INTERMEDIATE, PREPARATION METHOD THEREFOR AND USE THEREOF” (Jiangsu NHWA Pharmaceutical Co., Ltd, priority 2023, dated 2024)
Where a name gives a salt, the structure may show the parent alone. Read-outs that look alike come from different tables or passages of the source.

Columns and labels:
[1] = target: T1, α2A adrenoceptor (Homo sapiens, UniProt P08913); test: Agonist screening mode cAMP assay, 293-α2A cells; assay type: cell-based; details: for agonistic activity on the α2A receptor / agonistic activity α1A/2A: in words, compared with dexmedetomidine hydrochloride; for Function α1A/2A: ratio of α1A to α2A EC50
T1 construct: host or cells: 293
T1 sequence (P08913 1-465): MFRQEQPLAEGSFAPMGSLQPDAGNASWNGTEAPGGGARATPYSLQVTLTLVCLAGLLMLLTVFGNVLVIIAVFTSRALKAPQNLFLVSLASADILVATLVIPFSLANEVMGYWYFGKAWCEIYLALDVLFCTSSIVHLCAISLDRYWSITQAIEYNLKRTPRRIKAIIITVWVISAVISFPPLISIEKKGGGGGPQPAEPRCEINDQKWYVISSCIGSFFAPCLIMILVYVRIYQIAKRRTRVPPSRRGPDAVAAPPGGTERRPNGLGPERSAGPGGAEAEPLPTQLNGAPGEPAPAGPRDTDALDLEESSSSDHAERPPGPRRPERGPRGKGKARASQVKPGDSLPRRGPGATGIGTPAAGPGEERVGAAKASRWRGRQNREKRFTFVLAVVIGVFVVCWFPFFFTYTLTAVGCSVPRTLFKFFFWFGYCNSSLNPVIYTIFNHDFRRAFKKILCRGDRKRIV
Description: The cells were centrifuged at 1000 rpm for 5 min, and the supernatant was discarded. 3 mL of PBS was added, and the mixture was gently pipetted to be mixed well. The cells were centrifuged again at 1000 rpm for 5 min, and the supernatant was discarded. The cells were resuspended in the 1× Stimulation buffer and counted using a Countstar cell counter, and the cell density was adjusted to 4 × 10^5 cells/mL for later use. • (4) Cell addition: The cell suspension was added to assay plates at 5 µL/well (i.e., about 2000 cells/well). • (5) Compound addition: The compound diluted with the Stimulation buffer was added to the assay plates described above at 4 µL/well. • (6) Reaction and incubation: After gentle shaking, the assay plates were incubated at 37 °C for 20 min. • (7) Agonist Forskolin addition: A 10× adenylate cyclase agonist (Forskolin with a final concentration of 1 µM) solution was added at 1 µL/well. • (8) Reaction and incubation: After gentle shaking, the assay plates were incubated at 37 °C for 45 min. • (9) Detection reagent addition: cAMP-cryptate and Anti-cAMP-d2 were separately diluted according to a ratio of 1:20 with Lysis & detection buffer in the Cisbio cAMP-Gi detection kit, and the diluted cAMP-cryptate and Anti-cAMP-d2 described above were separately added to the assay plate at 5 µL/well. After shaking, the assay plates were left to stand at room temperature for 60 min. • (10) Experimental readings: The plate was read on Envision, readings from the 665 nm and 615 nm channels were taken, and the ratio of 665 nm/615 nm readings was calculated.

[2] = tested on: Male SD rats; test: Hypnotic efficacy: loss of righting reflex (LORR) in rats; assay type: in vivo; details: for ED50: Rattus norvegicus, tail vein injection over 10 s, sequential method; for induce sleep in rats: time to induce sleep, dose twice the ED50
Description: The sequential method was used to determine the ED50 (median effective dose) for the loss of righting reflex (LORR) by the compounds of the present disclosure in rats: Male SD rats, weighing 200-300 grams, were used. Each compound was dissolved in normal saline and administered via tail vein injection at an initial dose at a constant injection rate over 10 s (one rat per dose). […] This process was repeated, and the results were recorded in the AOT425 Statpm software until the software could calculate the ED50, at which point the experiment was terminated. The hypnotic efficacy of the compounds of the present disclosure was evaluated using ED50 with lower ED50 values indicating stronger efficacy.
Comparison of onset time and duration: Male SD rats, weighing 200-300 grams, were used. Each compound was dissolved in normal saline and administered via tail vein injection at a constant injection rate over 10 s, with 10 rats per group. […] The onset time and duration were recorded.
The onset time refers to the period from the completion of injection to when the rat is placed in a supine position, with the criterion for loss of righting reflex defined as the rat's inability to spontaneously revert to a prone position using its forelimbs and maintained for ≥10 s, which serves as an indicator of compound efficacy; the duration refers to the sustained period during which the rat remains in a state of losing righting reflex. The spontaneous recovery of the righting reflex in the rat is considered the cessation of the efficacy.

[3] = EC50, cAMP-Gi, 293-α2A cells, Forskolin 1 µM, read-out: Function α2A
[4] = loss of righting reflex, male SD rats
[5] = in words, compared with dexmedetomidine hydrochloride, rats
[6] = loss of righting reflex, male SD rats, tail vein injection, dose twice the ED50, 10 rats per group

SMILES: c1cc2c(c(Cc3c[nH]cn3)c1)SCCC2 [Compound 1, 4-[1-(Thiochroman-8-yl)methyl]-1H-imidazole]
- EC50 [1, 3]: 1.28 nM
- agonistic activity on the α2A receptor [1]: comparable
- Function α1A/2A [1]: 2.5

SMILES: CC(c1c[nH]cn1)c1cccc2c1SCCC2 (stereo not shown) [Compound 2, 4-(1-[Thiochroman-8-yl)ethyl]-1H-imidazole]
- EC50 [1, 3]: 0.53 nM
- agonistic activity on the α2A receptor [1]: superior
- agonistic activity α1A/2A [1]: comparable
- Function α1A/2A [1]: 10.1

SMILES: CC(c1c[nH]cn1)c1cccc2c1CC2 (stereo not shown) [Compound 3, 4-(1-(Bicyclo[4.2.0]octa-1(6),2,4-trien-2-yl)ethyl)-1H-imidazole]
- EC50 [1]: 3.12 nM
- agonistic activity on the α2A receptor [1]: comparable
- agonistic activity α1A/2A [1]: superior
- Function α1A/2A [1]: 18.3

SMILES: CC(c1c[nH]cn1)c1cccc2c1CCCC2 (stereo not shown) [Compound 4, 4-(1-(5,6,7,8-Tetrahydronaphthalen-1-yl)ethyl)-1H-imidazole]
- EC50 [1]: 3.57 nM
- agonistic activity on the α2A receptor [1]: comparable
- agonistic activity α1A/2A [1]: comparable
- Function α1A/2A [1]: 7.0

SMILES: CC(c1c[nH]cn1)c1cccc2c1C=CC2 (stereo not shown) [Compound 8, 4-[1-(1H-Inden-4-yl)ethyl]-1H-imidazole]
- EC50 [1]: 0.91 nM
- agonistic activity on the α2A receptor [1]: superior
- agonistic activity α1A/2A [1]: superior
- Function α1A/2A [1]: 23.9
- ED50 [2, 4]: 0.0213 mg/kg
- Duration [2, 5]: significantly shorter
- hypnotic onset time [2, 5]: comparable to or slightly longer
- Duration [2, 6]: 635.80±697.73 S
- Onset time [2, 6]: 161.70±101.69 S
- induce sleep in rats ([2]; rats): ≤ 5 min

SMILES: CC(c1c[nH]cn1)c1cccc2c1OCC2 (stereo not shown) [Compound 10, 4-[1-(2,3-Dihydrobenzofuran-7-yl)ethyl]-1H-imidazole]
- EC50 [1]: 4.63 nM
- agonistic activity on the α2A receptor [1]: comparable
- agonistic activity α1A/2A [1]: comparable
- Function α1A/2A [1]: 5.2
- ED50 [2, 4]: 0.0088 mg/kg
- Duration [2, 5]: significantly shorter
- hypnotic onset time [2, 5]: comparable to or slightly longer
- Duration [2, 6]: 508.10±572.65 S
- Onset time [2, 6]: 219.90±93.88 S
- induce sleep in rats ([2]; rats): ≤ 5 min

SMILES: C[C@H](c1c[nH]cn1)c1cc(F)cc2c1C=CC2 [Compound 11-b, 4-[(1S)-1-(6-fluoro-1H-inden-4-yl)ethyl]-1H-imidazole]
- EC50 [1]: 9.18 nM
- agonistic activity on the α2A receptor [1]: comparable
- agonistic activity α1A/2A [1]: comparable
- Function α1A/2A [1]: 4.0
- ED50 [2, 4]: 0.0256 mg/kg
- Duration [2, 5]: significantly shorter
- hypnotic onset time [2, 5]: significantly shorter
- Duration [2, 6]: 666.00±376.66 S
- Onset time [2, 6]: 45.20±7.38 S

SMILES: CC(c1c[nH]cn1)c1cccc2c1C=CC2(C)C (stereo not shown) [Compound 17, 4-[1-(1,1-Dimethyl-1H-inden-4-yl)ethyl]-1H-imidazole]
- EC50 [1]: 32 nM
- agonistic activity α1A/2A [1]: comparable
- Function α1A/2A [1]: 3.2
- ED50 [2, 4]: 0.276 mg/kg
- Duration [2, 5]: significantly shorter
- hypnotic onset time [2, 5]: comparable to or slightly longer
- Duration [2, 6]: 1602.50±681.51 S
- Onset time [2, 6]: 101.80±154.86 S
- induce sleep in rats ([2]; rats): ≤ 5 min

SMILES: C[C@H](c1c[nH]cn1)c1cccc2c1CCC2 [Compound 31-b, (S)-4-[1-(2,3-dihydro-1H-inden-4-yl)ethyl]-1H-imidazole]
- EC50 [1]: 4.46 nM
- agonistic activity on the α2A receptor [1]: comparable
- agonistic activity α1A/2A [1]: comparable
- Function α1A/2A [1]: 1.8
- ED50 [2, 4]: 0.0268 mg/kg
- Duration [2, 5]: significantly shorter
- hypnotic onset time [2, 5]: comparable to or slightly longer
- Duration [2, 6]: 1147.78±656.35 S
- Onset time [2, 6]: 100.44±49.16 S
- induce sleep in rats ([2]; rats): ≤ 5 min

SMILES: CC1Cc2cccc(C(C)c3c[nH]cn3)c2O1 (stereo not shown) [Compound 32, 4-[1-(2-Methyl-2,3-dihydrobenzofuran-7-yl)ethyl]-1H-imidazole]
- EC50 [1]: 353 nM
- Function α1A/2A [1]: 0.0

SMILES: C[C@H](c1c[nH]cn1)c1cc(F)cc2c1C(=O)CC2 [Compound 38-b, (S)-7-(1-(1H-imidazol-4-yl)ethyl)-5-fluoro-2,3-dihydro-1H-inden-1-one]
- EC50 [1, 3]: 13.2 nM
- Function α1A/2A [1]: 0.7
- ED50 [2, 4]: 0.032 mg/kg
- Duration [2, 5]: significantly shorter
- hypnotic onset time [2, 5]: comparable to or slightly longer
- Duration [2, 6]: 228.22±158.93 S
- Onset time [2, 6]: 102.44±52.34 S
- induce sleep in rats ([2]; rats): ≤ 5 min

SMILES: Cc1cccc([C@H](C)c2cnc[nH]2)c1C [Dexmedetomidine hydrochloride, reference compound]
- ED50 [2, 4]: 0.01 mg/kg
- Duration [2, 6]: 3275.10±796.79 S
- Onset time [2, 6]: 77.80±28.56 S
